Experimental data reported in patent US20260207666A1, “CD38 AS INTEGRATION SITE FOR ENHANCED FUNCTION OF GENE-MODIFIED IMMUNE CELLS” (RESEARCH INSTITUTE AT NATIONWIDE CHILDREN'S HOSPITAL, priority 2022, published 2026).
“Also recorded” adds a separate entry of the source.

What was measured:
human primary NK cells = assay: CD38 and CD38-CAR expression by flow cytometry in NK cells; format: cell-based; conditions: CAR inserted at CD38 locus, 75,000 vg/cell AAV6, seven days post-transduction (FIG. 18C)
Procedure: CD38^KO/CD38-CAR T cells or NK cells were generated by electroporation of HiFi Cas9 Nuclease V3 (Integrated DNA Technologies, Coralville, IA) and gRNA targeting exon 1 of the CD38 gene (5-[…]) (SEQ ID NO: 1). Knock-out cells were then returned to culture media and transduced within 30 minutes with 75,000 vg/cell of Adeno-Associated Virus Type 6 (AAV6, Andelyn Biosciences) vector containing the CAR expression cassette with CD38 homology arms.
(§1) Cells were stained in PBS buffer containing 2% FBS using anti-CD38/PE (Miltenyi Biotec, clone REA572), CD38 Fc Chimera Protein (R&D Systems, rhCD38) followed by secondary staining with Alexa Fluor 647 AffiniPure Goat Anti-Human IgG (Jackson ImmunoResearch), and Tonbo Ghost Dye 450 (Tonbo Biosciences, San Diego, CA, USA). See representative gating strategy (FIG. 25).

human primary T cells = assay: CD38 and CD38-CAR expression by flow cytometry in T cells; format: cell-based; conditions: T cells, 75,000 vg/cell AAV6 (FIG. 22B)
Procedure: Human primary T cells were isolated from donor buffy coats using RosetteSep™ Human T Cell Enrichment Cocktail (Stem Cell Technologies, Vancouver, BC, Canada) as described for NK cells. Isolated T cells were stimulated on day 0 with Human T-Activator CD3/CD28 (Thermo Fisher Scientific). Stimulated T cells were cultured in RPMI 1640 media plus Glutamax, 10% FBS at a concentration of 1.0e6 cells/mL and supplemented with 50 IU/mL human recombinant IL-7 and IL-15 (Biolegend, San Diego, CA) every 2-3 days.
Two days after cytokine activation the T cells were electroporated and transduced as described below. After transduction the cells were expanded in RPMI 1640 media plus Glutamax, 10% FBS at 1.0e6 cells/mL with IL-7 and IL-15 supplemented at 50 IU/mL every 2-3 days for up to 10 days.
CD38^KO/CD38-CAR T cells or NK cells were generated by electroporation of HiFi Cas9 Nuclease V3 (Integrated DNA Technologies, Coralville, IA) and gRNA targeting exon 1 of the CD38 gene (5-[…]) (SEQ ID NO: 1). Knock-out cells were then returned to culture media and transduced within 30 minutes with 75,000 vg/cell of Adeno-Associated Virus Type 6 (AAV6, Andelyn Biosciences) vector containing the CAR expression cassette with CD38 homology arms. […]

H929 = assay: 4-hour calcein AM cytotoxicity assay; format: cell-based, human; conditions: H929 (MM), 4-hour assay
Procedure: (§2) CSTX002 feeder cells, derived from K562 and transduced to express membrane-bound IL-21 and 4-1BBL (referred to hereafter as FC21) were cultured in RMPI 1640 media containing 10% fetal bovine serum (FBS) at 37° C., 5% CO2. FC21 were treated with 100 Gy x-ray irradiation (Faxitron, Tucson AZ) prior to coculture with NK cells. Human AML cell line MV4-11, MM cell lines MM1S and H929, and BL cell lines Daudi and Raji were purchased from American type culture collection (ATCC). Primary human AML cells (AML10) were obtained from a pediatric patient with relapsed M5 AML and passaged in NOD-SCID mice. Primary human AML, Pre-T ALL, T-PLL, MM, and HSTCL were obtained from the Ohio State University Comprehensive Cancer Center Leukemia Tissue Bank. Tumor cell lines were cultured in RPMI 1640 media plus Glutamax, 10% FBS and routinely tested for mycoplasma contamination. Anonymized human buffy coats were obtained from the American Red Cross of Ohio (Columbus, OH, USA) as healthy donor lymphocyte source material, designated not human subjects research by the institutional review board.
(§3) 4-hour cytotoxicity assays were performed using calcein AM (Fisher Scientific, Hampton, NH). Briefly, target tumor cells were stained with 2 μg/mL calcein AM and co-cultured with effector cells at the indicated Effector:Target ratios. After 4 hours, culture supernatant was assessed by fluorimetry and percent specific lysis calculated using maximum and minimum controls. Cytotoxicity is plotted as percent specific lysis.

MV4-11 = assay: 4-hour calcein AM cytotoxicity assay; format: cell-based, human; conditions: MV4-11 (AML), 4-hour assay
Procedure: as §2, §3

Raji = assay: 4-hour calcein AM cytotoxicity assay; format: cell-based, human; conditions: Raji (BL), 4-hour assay
Procedure: as §2, §3

AML cell lines = assay: CD38 surface expression after ATRA treatment (flow cytometry); format: cell-based, human; conditions: AML cell lines with lowest baseline CD38, 10 nM ATRA for 48 hours
From the text: as §1
(§4) To further augment the antitumor activity of the CD38-CAR NK cells, we explored combination therapy with ATRA. ATRA is a differentiation agent that upregulates CD38 expression in many cell types. Across cell lines of AML, MM, and BL, we observed variable responses in CD38 expression after treatment with 10 nM ATRA for 48 hours (FIG. 20A). […] Thus, ATRA appears to have a cell line dependent effect on the increase in CD38 surface density and sensitivity to CAR NK cell killing (FIG. 20A, 20C).

BL = assay: as above; format: cell-based, human; conditions: high CD38-expressing BL, 10 nM ATRA for 48 hours
From the text: as §1, §4

MM cell lines = assay: as above; format: cell-based, human; conditions: intermediate to high CD38-expressing MM cell lines, 10 nM ATRA for 48 hours
From the text: as §1, §4

CD38^KO NK cells = assay: Effect of ATRA on NK cell function or viability; format: cell-based, human
primary AML cells = assay: Mass cytometry lysis assay; format: cell-based, human; conditions: with ATRA, prior to co-culture with NK cells
Procedure: A primary AML patient cell sample (OSU leukemia tissue bank) was cultured in a 6-well plate (pre-coated with rat tail collagen [Corning]) in serum free media (SFEM) supplemented with a cytokine cocktail (IL-6, IL-3, FLT3, GMCSF, GCSF, and TPO at 6.66 ng/mL, EPO at 3.33 ng/mL, SCF at 20 ng/mL; Stem Cell Technologies). The primary AML samples were cultured for 24 hours with or without 10 nM ATRA. After 24 hours, wild-type or CD38^KO/CD38 CAR-NK cells were added at a ratio of 1:1 and co-cultured for 24 hours. Control wells were cultured in parallel. Cell were stained and events were acquired on the Helios CyTOF system (Fluidigm, Toronto, Canada). Cells were identified using markers and analyzed using SPADE.

| Compound | median AAV6 transduction efficiency (human primary NK cells) [%] | median AAV6 transduction efficiency (human primary T cells) [%] | cytotoxicity compared to wildtype cells (H929) | cytotoxicity compared to wildtype cells (MV4-11) | cytotoxicity compared to wildtype cells (Raji) | CD38 expression after ATRA treatment (AML cell lines) | CD38 expression after ATRA treatment (BL) | CD38 expression after ATRA treatment (MM cell lines) | adverse effect on function or viability of CD38^KO NK cells (CD38^KO NK cells) | live cell population of primary AML cells (primary AML cells) [%] |
| --- | --- | --- | --- | --- | --- | --- | --- | --- | --- | --- |
| V4: Isatuximab-based anti-CD38 CAR construct with reversed heavy/light chain order, SEQ ID NO: 29/30 | 61.9 | 35.9 | significant increase in cytotoxicity | significant increase in cytotoxicity | significant increase in cytotoxicity | – | – | – | – | – |
| CC1=C(/C=C/C(C)=C/C=C/C(C)=C/C(=O)O)C(C)(C)CCC1 [ATRA, all-trans retinoic acid] | – | – | – | – | – | greatest proportional increase; also recorded: greatest increases | no observable increase | minor increase | did not have any adverse effect | 77.5 |
| V3: Isatuximab-based anti-CD38 second-generation CAR construct with CD3ζ, 41BB and CD8α TM/hinge, SEQ ID NO: 27/28 | 60.7 | 44.4 | significant increase in cytotoxicity | significant increase in cytotoxicity | significant increase in cytotoxicity | – | – | – | – | – |
